Assay results reported in patent publication US20070238727A1, “5-Substituted 1-Phenyl-1,5-Dihydro-Pyrido[3,2-B]Indol-2-Ones and Analogs as Anti-Virals” (Tibotec BVBA, priority 2004, published 2007).

What follows are compounds tested on HIV (assay: Cellular assay: anti-viral activity in HIV-infected MT4 cells (MTT)). Details: Human immunodeficiency virus 1, 120 h, five days incubation, negative logarithm of EC50.
Type: cell-based
Experimental: Compounds of the present invention were examined for anti-viral activity in a cellular assay, which was performed according to the following procedure.
HIV- or mock-infected MT4 cells were incubated for five days in the presence of various concentrations of the inhibitor. At the end of the incubation period, the replicating virus in the control cultures has killed all HIV-infected cells in the absence of any inhibitor. Cell viability was determined by measuring the concentration of MTT, a yellow, water soluble tetrazolium dye that is converted to a purple, water insoluble formazan in the mitochondria of living cells only. Upon solubilization of the resulting formazan crystals with isopropanol, the absorbance of the solution was monitored at 540 nm. The values correlate directly to the number of living cells remaining in the culture at the completion of the five day incubation. The inhibitory activity of the compound was monitored on the virus-infected cells and was expressed as EC50 and EC90. These values represent the amount of the compound required to protect 50% and 90%, respectively, of the cells from the cytopathogenic effect of the virus. The toxicity of the compound was measured on the mock-infected cells and was expressed as CC50, which represents the concentration of compound required to inhibit the growth of the cells by 50%. The selectivity index (SI) (ratio CC50/EC50) is an indication of the selectivity of the anti-HIV activity of the inhibitor. Wherever results are reported as e.g. pEC50 or pCC50 values, the result is expressed as the negative logarithm of the result expressed as EC50 or CC50 respectively.

SMILES	EC50 [nM]
N#Cc1cc2c(c3ccccc3n2CC(O)CN2CCCC2)n(-c2ccc([N+](=O)[O-])cc2)c1=O (stereo not drawn) [Compound 2, 5-(2-Hydroxy-3-pyrrolidin-1-yl-propyl)-1-(4-nitro-phenyl)-2-oxo-2,5-dihydro-1H-pyrido[3,2-b]indole-3-carbonitrile]	251
N#Cc1cc2c(c3ccccc3n2CC(O)CN2CCSCC2)n(-c2ccc([N+](=O)[O-])cc2)c1=O (stereo not drawn) [Compound 9]	794
COCCOCCOCCn1c2ccccc2c2c1cc(C#N)c(=O)n2-c1ccc([N+](=O)[O-])cc1 [Compound 11]	1580
COC(Cn1c2ccccc2c2c1cc(C#N)c(=O)n2-c1ccc([N+](=O)[O-])cc1)C[N+](C)(C)C (stereo not drawn) [Compound 13]	15800
CC(=O)OC(CN1CCCC1)Cn1c2ccccc2c2c1cc(C#N)c(=O)n2-c1ccc([N+](=O)[O-])cc1 (stereo not drawn) [Compound 21]	501
N#Cc1cc2c(c3ccccc3n2CCCONC(=N)N)n(-c2ccc([N+](=O)[O-])cc2)c1=O [Compound 25]	15800
N#Cc1cc2oc3ccccc3c2n(-c2ccc([N+](=O)[O-])cc2)c1=O [Compound 42, 1-(4-Nitro-phenyl)-2-oxo-1,2-dihydro-benzo[4,5]furo[3,2-b]pyridine-3-carbonitrile]	794

Second part, the compound after the results:

EC50 [nM]	SMILES
316	COCCOCCn1c2ccccc2c2c1cc(C#N)c(=O)n2-c1ccc([N+](=O)[O-])cc1 [Compound 4, 5-[2-(2-Methoxy-ethoxy)-ethyl]-1-(4-nitro-phenyl)-2-oxo-2,5-dihydro-1H-pyrido-[3,2-b]indole-3-carbonitrile]
1000	CC1CCCN(CCn2c3ccccc3c3c2cc(C#N)c(=O)n3-c2ccc([N+](=O)[O-])cc2)C1 (stereo not drawn) [Compound 31]
2510	CC(=O)N1CCN(CCCn2c3ccccc3c3c2cc(C#N)c(=O)n3-c2ccc([N+](=O)[O-])cc2)CC1 [Compound 35]
1000	CC1CN(CCn2c3ccccc3c3c2cc(C#N)c(=O)n3-c2ccc([N+](=O)[O-])cc2)CC(C)O1 (stereo not drawn) [Compound 40]

These compounds were tested against T1, HIV reverse transcriptase (Human immunodeficiency virus type 1 group M subtype B, UniProt P04585) (assay: In vitro inhibition of HIV reverse transcriptase (kit TRK 1022, 3H-TTP)). Details: HIV RT enzyme, 4 hours at 37° C., no conversion to active metabolite needed.
T1 construct: 5 μl HIV RT enzyme solution at a final enzyme activity of 15 mU per 50 μl reaction; purchased Amersham Life Sciences TRK 1022
Type: biochemical
Experimental: The assay was run using kit TRK 1022 (Amersham Life Sciences) according to the manufacturer's instructions with slight modifications. Test compounds were diluted in steps of 1/4 in 100% DMSO and subsequently transferred to Medium A (1/50 dilution; medium A: RPMI 1640+10% FetalClone 1+Gentamycin 20 mg/L). 25 μl of compound (in 2% DMSO in Medium A) or 25 μl of 2% DMSO in medium A was added to wells. To each well was added 25.5 μl master mix (master mix: 5 μl primer/template beads, 10 μl assay buffer, 0.5 μl tracer (3H-TTP), 5 μl HIV RT enzyme solution at a final enzyme activity of 15 mU per 50 μl reaction, 5 μl medium A). The plates were sealed, marked as radioactive and incubated during 4 hours at 37° C. Subsequently, 100 μl stop solution was added to each well (except R1). The radioactivity was counted in a TopCount.

SMILES	inhibition of HIV reverse transcriptase in vitro
N#Cc1cc2c(c3ccccc3n2CC(O)CN2CCCC2)n(-c2ccc([N+](=O)[O-])cc2)c1=O (stereo not drawn) [Compound 2, 5-(2-Hydroxy-3-pyrrolidin-1-yl-propyl)-1-(4-nitro-phenyl)-2-oxo-2,5-dihydro-1H-pyrido[3,2-b]indole-3-carbonitrile]	inhibit IV reverse transcriptase in vitro
